Measured values taken from paper PMC6680806, “Preparation of Retinoyl-Flavonolignan Hybrids and Their Antioxidant Properties” (Antioxidants, 2019).
Several values for one entry are separate records, joined by “and”; a condition that tells them apart may be missing. Equal values may be shown once.

Experiments:
DPPH radical scavenging = format: biochemical; settings: 20 µM DPPH in methanol, 30 min, 25 °C, mean ± standard error
Protocol: The radical scavenging activity of the prepared conjugates, their parent compounds, their equimolar mixtures and retinol was evaluated as their capacity to scavenge 1,1-diphenyl-2-picrylhydrazyl radicals (DPPH, Sigma-Aldrich, Prague, Czech Republic), as described previously with minor modifications. Briefly, 15 µL of the tested substance (final concentration 0–20 mM in DMSO) was mixed with 285 µL of a freshly prepared methanolic DPPH solution (final concentration 20 µM) in a microtiter plate well. After 30 min at 25 °C, the absorbance at 517 nm was measured. The activity was expressed as the concentration of the compound required for reducing the absorbance to 50% (IC50) of its initial value.

[1] = Ferric reducing antioxidant power (FRAP); format: biochemical; settings: mean ± standard error
Protocol: (§1) Ferric reducing antioxidant power (FRAP) and cupric reducing antioxidant capacity (CUPRAC) were measured using kits from Bioquochem (Llanera-Asturias, Spain) according to the manufacturer´s instructions and expressed as trolox equivalents (TE). To determine oxygen radical absorption capacity (ORAC), 73 µL of fluorescein (1.8 mg/L) solution in phosphate buffered saline (PBS, pH 7.4) was mixed with 2 µL of the samples (0–20 µM) in the wells of a 96-well plate. After 15 min incubation (37 °C), 25 µL of freshly prepared 2,2′-azo-bis(2-amidinopropane) dihydrochloride (AAPH, 60 mg/mL) was added to each well except for the negative control, where AAPH was replaced for PBS. The fluorescence (ex./em., 485/535 nm) was recorded immediately and for the next 2 h with the measurement step for 5 min using a microplate reader (SpectraMax i3 Multi-Mode Detection Platform, Molecular Devices, Wokingham, UK).
(§2) The oxidations in living organism caused by free radicals are usually undesirable processes damaging such important biomolecules as DNA, proteins and lipids. The application of antioxidants is one of the most straightforward means to protect these biomolecules from oxidative stress. Many assays are available for determination of antioxidant potential in vitro. These assays are based on the reduction of stable radicals (DPPH), on the competitive bleaching of a probe (ORAC) or on the reduction of iron ions (CUPRAC, FRAP). CUPRAC test is very similar to FRAP assay but is based on the reduction of Cu^2+ in a neutral pH, while FRAP test is based on Fe^3+ in acidic pH. As each assay suffers from some limitations, a set of antioxidant tests was used here to combine more parameters.

[2] = Cupric reducing antioxidant capacity (CUPRAC); format: biochemical; settings: mean ± standard error; values marked f: measurement disturbed by the formation of a precipitate
Protocol: as §1, §2

[3] = Oxygen radical absorption capacity (ORAC); format: biochemical; settings: fluorescein/AAPH, PBS pH 7.4, 37 °C; mean ± standard error
Protocol: as §1
(§3) The main disadvantage of DPPH scavenging assay is the use of an unnatural radical. Such methods based on competitive probe reactions or indirect methods based on persistent radicals should only be used for preliminary screening purposes. Thus, to better characterize the potential of the obtained conjugates in terms of their biological activity, a series of simple, rapid, sensitive and reproducible biochemical antioxidant assays including FRAP, CUPRAC and ORAC [38] and a more relevant cellular antioxidant activity (CAA [37]) was measured (Table 2). […] Therefore, in this study, we compared two methods with the same mechanism of action: ORAC assay was performed as a classical biochemical method presenting the ability of tested compounds to quench peroxyl radicals generated from AAPH to protect fluorescein from oxidation. This assay serves better as a physical description of the tested compounds [37]. To reflect biological aspect, CAA was measured using the liver carcinoma HepG2 cell line where the compound must enter the cell to fulfil its role as an antioxidant. The CAA assay partially includes the bioavailability, aspects of uptake and metabolism.

HepG2 cell line = test: Cellular antioxidant activity (CAA); format: cell-based; settings: Homo sapiens; HepG2 cells, DCFH-DA/AAPH; > = no activity noted at the highest concentration tested
Protocol: For cellular antioxidant activity (CAA) assay, the HepG2 cell line (ATCC, CCL-23TM, USA) was cultivated in Eagle’s Minimum Essential Medium (Sigma-Aldrich, USA) supplemented with 10% of foetal bovine serum, 2 mM L-glutamine and 1× Antibiotic Antimycotic Solution (Sigma-Aldrich, St. Louis, MO, USA) in a CO2 incubator (5% CO2, 37 °C, Thermo Fisher Scientific, Waltham, MA, USA) and passaged 2×/week using trypsin-EDTA solution. For the experiments, 100 µL of the cells (1 × 10^6 cells/mL, Cellometer Auto T4 Bright Field Cell Counter, Nexcelom Bioscience, Lawrence, MA, USA) were split into 96-well plates. After 24 h, the cells were washed 3× with PBS (MultiFlo Multi-Mode Dispenser, BioTek, USA) and Dulbecco’s Modified Eagle’s Medium (Sigma-Aldrich, St. Louis, MO, USA) supplemented with the 2′,7′-dichlorodihydrofluorescein diacetate (DCFH-DA, 0.0125 mg/mL) was added to each well together with the tested samples in the concentration range 0–500 µM. After incubation (1 h, CO2 incubator, 37 °C), the medium was manually replaced for AAPH solution (0.16 mg/mL) and the fluorescence (ex./em. 485/540 nm) was recorded immediately for 2 h with 5 min steps.
as §3

[4] = Stability of sample during ORAC and CAA measurement; format: physicochemical
Protocol: Dose-dependent curves were obtained in both ORAC and CAA assay for single compounds resulting in IC50 determination (Table 2). In contrast, no anti-oxidant activity of the conjugates was detected in liver cells in all the concentration range tested up to 50 or 500 µM. In fact, such a large concentration is not expectable in plasma.

[5] = parent compound alone, read-out: DPPH radical scavenging activity (IC50), parent compound
[6] = covalent retinoyl conjugate, read-out: DPPH radical scavenging activity (IC50), conjugate with retinoic acid

Row | IC50 (DPPH radical scavenging; [5]) | IC50 [3] | IC50 (HepG2 cell line) | IC50 (DPPH radical scavenging; [6]) | Stability during ORAC and CAA measurement [4] | Structure (SMILES) | FRAP (ferric-reducing antioxidant potential, trolox equivalents) [1] | CUPRAC (cupric reducing antioxidant capacity) [2]
1 | 472 ± 16 µM | 7.8 ± 0.7 µM | 11.8 ± 0.3 µM |  |  | COc1cc(C2Oc3cc([C@H]4Oc5cc(O)cc(O)c5C(=O)[C@@H]4O)ccc3OC2CO)ccc1O (stereo partly drawn) [3ab, Silybin] | 0.335 ± 0.006 TE | 0.17 ± 0.00 TE
2 |  | 230 ± 8 µM | > 500 µM | 540 µM |  | COc1cc([C@@H]2Oc3cc([C@H]4Oc5cc(OC(=O)/C=C(C)/C=C/C=C(C)/C=C/C6=C(C)CCCC6(C)C)cc(O)c5C(=O)[C@@H]4O)ccc3O[C@H]2CO)ccc1O [6b, Silybin B-7-O-retinoate] | 0.010 ± 0.001 *^,# TE | 0.04 ± 0.01^f TE
3 | 19.2 ± 0.3 µM | 9.6 ± 0.4 µM | 10.9 ± 0.5 µM |  |  | COc1cc(C2Oc3cc(-c4oc5cc(O)cc(O)c5c(=O)c4O)ccc3OC2CO)ccc1O (stereo not drawn) [compound 4, 2,3-dehydrosilybin] | 4.06 ± 0.05 TE | 0.25 ± 0.00 TE
4 |  |  | > 50 µM | 379 µM | unstable and decomposed | COc1cc([C@H]2Oc3cc([C@H]4Oc5cc(OC(=O)/C=C(C)/C=C/C=C(C)/C=C/C6=C(C)CCCC6(C)C)cc(O)c5C(=O)[C@@H]4O)ccc3O[C@@H]2CO)ccc1O [6a, Silybin A-7-O-retinoate] | 0.038 ± 0.002 *^,# TE | 0.21 ± 0.02 TE
5 |  | 91 ± 4 µM | > 500 µM | 666 µM |  | COc1cc(C2Oc3cc([C@H]4Oc5cc(OC(=O)/C=C(C)/C=C/C=C(C)/C=C/C6=C(C)CCCC6(C)C)cc(O)c5C(=O)[C@@H]4O)ccc3OC2CO)ccc1O (stereo partly drawn) [6ab, Silybin-7-O-retinoate] | 0.03 ± 0.02 *^,# TE | 0.22 ± 0.01 TE
6 | 1480 µM and 745 µM | 169 ± 12 µM | 1270 ± 147 µM |  |  | CC1=C(/C=C/C(C)=C/C=C/C(C)=C/CO)C(C)(C)CCC1 [compound 1, Retinol] | 1.76 ± 0.04 TE | 0.09 ± 0.01^f TE
7 |  | 174 ± 7 µM | > 500 µM | 2360 µM |  | COc1cc([C@H]2Oc3ccc([C@H]4Oc5cc(OC(=O)/C=C(C)/C=C/C=C(C)/C=C/C6=C(C)CCCC6(C)C)cc(O)c5C(=O)[C@@H]4O)cc3O[C@@H]2CO)ccc1O [8a, Isosilybin A-7-O-retinoate] | 0.022 ± 0.003 *^,# TE | 0.11 ± 0.01^f TE
8 | 745 µM and 1480 µM | 13 ± 2 µM | 460 ± 211 µM |  |  | CC1=C(/C=C/C(C)=C/C=C/C(C)=C/C(=O)O)C(C)(C)CCC1 [compound 2, Retinoic acid] | 0.62 ± 0.02 TE | 0.10 ± 0.02^f TE
9 | 783 ± 9 µM | 4.3 ± 1.1 µM | > 100 µM |  |  | COc1cc([C@H]2Oc3ccc([C@H]4Oc5cc(O)cc(O)c5C(=O)[C@@H]4O)cc3O[C@@H]2CO)ccc1O [5a, isosilybin A] | 0.280 ± 0.006 TE | 0.16 ± 0.02 TE
10 | 659 ± 29 µM | 8 ± 0.3 µM | 6.8 ± 0.5 µM |  |  | COc1cc([C@@H]2Oc3cc([C@H]4Oc5cc(O)cc(O)c5C(=O)[C@@H]4O)ccc3O[C@H]2CO)ccc1O [3b, silybin B] | 0.268 ± 0.009 TE | 0.16 ± 0.02 TE
11 | 818 ± 22 µM | 8.5 ± 0.4 µM | 10 ± 0.7 µM |  |  | COc1cc([C@H]2Oc3cc([C@H]4Oc5cc(O)cc(O)c5C(=O)[C@@H]4O)ccc3O[C@@H]2CO)ccc1O [3a, silybin A] | 0.278 ± 0.005 TE | 0.20 ± 0.00 TE
12 |  | 130 ± 7 µM | > 500 µM | 734 µM |  | COc1cc(C2Oc3cc(-c4oc5cc(O)cc(O)c5c(=O)c4OC(=O)/C=C(C)/C=C/C=C(C)/C=C/C4=C(C)CCCC4(C)C)ccc3OC2CO)ccc1O (stereo not drawn) [compound 7, 2,3-Dehydrosilybin AB-3-O-retinoate] | 0.034 ± 0.005 *^,# TE | 0.07 ± 0.02^f TE
